Measurements taken from patent US12122761B2, “2-azaspiro[3.4]octane derivatives as M4 agonists” (NOVARTIS AG, priority 2019, dated 2024).
pEC50: −log10 of the molar value.

Assays:
[1] = target: T1, human cloned CHRM3 receptor (M3_CHO cells) (Homo sapiens, UniProt P20309); experiment: CHRM3 Ca++ Flux Assay (agonist mode, FDSS 7000EX); format: cell-based; conditions: for Emax: Percent Activity measured to EC100 of Carbachol, read-out: M3 FDSS PA; for pEC50: agonist mode, geometric mean if tested more than once, read-out: M3 FDSS EC50
T1 construct: expressed in transfected cells; host or cells: CHO-K1
In short: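 CHO-K1 cells stably expressing human M3 or M5 receptor were dye-loaded for at least 1 h in HBSS with 20 mM HEPES and 2.5 mM probenecid, then given 11-point compound doses in triplicate.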

[2] = target: T2, human cloned CHRM2 receptor (M2_CHO cells) (Homo sapiens, UniProt P08172); experiment: CHRM2 Ca++ Flux Assay (agonist mode, FDSS 7000EX); format: cell-based; conditions: for Emax: Percent Activity measured to EC100 of Carbachol, read-out: M2 FDSS PA; for pEC50: agonist mode, geometric mean if tested more than once, read-out: M2 FDSS EC50
T2 construct: expressed in transfected cells; host or cells: CHO-K1
T2 sequence (P08172 1-466): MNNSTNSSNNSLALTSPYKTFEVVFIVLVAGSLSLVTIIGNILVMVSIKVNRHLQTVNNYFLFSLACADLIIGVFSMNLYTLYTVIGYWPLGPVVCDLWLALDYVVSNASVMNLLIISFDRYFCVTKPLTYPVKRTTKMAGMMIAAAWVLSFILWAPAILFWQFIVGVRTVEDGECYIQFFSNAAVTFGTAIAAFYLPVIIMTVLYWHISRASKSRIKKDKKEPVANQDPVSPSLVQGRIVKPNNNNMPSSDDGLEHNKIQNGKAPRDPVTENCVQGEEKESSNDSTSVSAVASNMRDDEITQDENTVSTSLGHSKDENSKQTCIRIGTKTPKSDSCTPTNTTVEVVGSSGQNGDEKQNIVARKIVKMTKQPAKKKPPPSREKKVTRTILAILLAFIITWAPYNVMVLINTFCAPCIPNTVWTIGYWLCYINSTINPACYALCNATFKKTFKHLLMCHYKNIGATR
In short: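 Response expressed as percent activity versus the Carbachol EC100, with curves fitted by four-parameter non-linear regression of triplicates. Stable M2_CHO cells were Ca++ dye-loaded and preincubated 60 min at room temperature in assay buffer containing 20 μM ATP; signal imaged for 3 minutes after compound.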

T1 sequence (P20309 whole entry): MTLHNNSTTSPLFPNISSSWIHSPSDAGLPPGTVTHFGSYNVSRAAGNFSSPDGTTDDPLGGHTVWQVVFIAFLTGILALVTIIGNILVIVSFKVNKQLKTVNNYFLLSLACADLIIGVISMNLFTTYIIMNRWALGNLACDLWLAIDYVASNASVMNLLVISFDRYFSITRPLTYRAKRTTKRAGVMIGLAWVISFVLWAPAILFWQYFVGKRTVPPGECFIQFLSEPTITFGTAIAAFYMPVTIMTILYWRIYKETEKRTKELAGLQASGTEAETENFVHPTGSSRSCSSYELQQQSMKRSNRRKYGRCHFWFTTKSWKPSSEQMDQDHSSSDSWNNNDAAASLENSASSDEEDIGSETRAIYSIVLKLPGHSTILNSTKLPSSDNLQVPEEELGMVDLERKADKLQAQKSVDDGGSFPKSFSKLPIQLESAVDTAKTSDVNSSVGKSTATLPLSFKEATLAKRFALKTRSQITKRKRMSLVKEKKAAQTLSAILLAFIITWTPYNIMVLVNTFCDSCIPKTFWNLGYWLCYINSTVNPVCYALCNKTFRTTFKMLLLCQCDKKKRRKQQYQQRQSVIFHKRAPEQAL

Row | Structure (SMILES) | Emax [1] [%] | pEC50 [1] | Emax [2] [%] | pEC50 [2]
1 | O=C(C1COC1)N1CC2(CC[C@@H](N3CCC(c4ccccc4OCCC(F)(F)F)CC3)C2)C1 [Example 7GG, (R)-oxetan-3-yl(6-(4-(2-(3,3,3-trifluoropropoxy)phenyl)piperidin-1-yl)-2-azaspiro[3.4]octan-2-yl)methanone] | 0 | < 4.60 | 9 | 6.14
2 | O=C(C1COC1)N1CC2(CC[C@@H](N3CCC(c4ccccc4OC4CCC4)CC3)C2)C1 [Example 7H, (R)-(6-(4-(2-cyclobutoxyphenyl)piperidin-1-yl)-2-azaspiro[3.4]octan-2-yl)(oxetan-3-yl)methanone] | 0 | < 4.60 | 0 | 
3 | COC(C)(C)COc1ccccc1C1CCN([C@@H]2CCC3(C2)CN(C(=O)C2COC2)C3)CC1 [Example 7HH, (R)-(6-(4-(2-(2-methoxy-2-methylpropoxy)phenyl)piperidin-1-yl)-2-azaspiro[3.4]octan-2-yl)(oxetan-3-yl)methanone] | 0 | < 4.60 | 16 | 6.81
4 | O=C(C1COC1)N1CC2(CC[C@@H](N3CCC(c4ccccc4OCC4(C(F)(F)F)CC4)CC3)C2)C1 [Example 7II, (R)-oxetan-3-yl(6-(4-(2-((1-(trifluoromethyl)cyclopropyl)methoxy)phenyl)piperidin-1-yl)-2-azaspiro[3.4]octan-2-yl)methanone] | 0 | < 4.60 | 12 | 5.16
5 | O=C(C1COC1)N1CC2(CC[C@@H](N3CCC(c4ccccc4OC(F)(F)F)CC3)C2)C1 [Example 12A, (R)-oxetan-3-yl(6-(4-(2-(trifluoromethoxy)phenyl)piperidin-1-yl)-2-azaspiro[3.4]octan-2-yl)methanone] | 0 | < 4.60 | 18 | 3.96

Other lines, results leading:

Row | Emax [1] [%] | pEC50 [1] | Emax [2] [%] | pEC50 [2] | Structure (SMILES)
6 | 0 | < 4.60 | 0 |  | O=C(C1COC1)N1CC2(CC[C@@H](N3CCC(c4ccccc4OC4CCCC4)CC3)C2)C1 [Example 7G, (R)-(6-(4-(2-(cyclopentyloxy)phenyl)piperidin-1-yl)-2-azaspiro[3.4]octan-2-yl)(oxetan-3-yl)methanone]
7 | 0 | < 4.60 | 16 | 6.91 | O=C(C1COC1)N1CC2(CC[C@@H](N3CCC(c4ccccc4OCC4CC4)CC3)C2)C1 [Example 7I, (R)-(6-(4-(2-(cyclopropylmethoxy)phenyl)piperidin-1-yl)-2-azaspiro[3.4]octan-2-yl)(oxetan-3-yl)methanone]
8 | 0 |  | 33 | 6.68 | CCOc1ccccc1C1CCN([C@@H]2CCC3(C2)CN(C(=O)C2COC2)C3)CC1 [Example 7J, (R)-(6-(4-(2-ethoxyphenyl)piperidin-1-yl)-2-azaspiro[3.4]octan-2-yl)(oxetan-3-yl)methanone]
9 | 0 | < 4.60 | 22 | 7.01 | O=C(C1COC1)N1CC2(CC[C@@H](N3CCC(c4ccccc4OCC(F)F)CC3)C2)C1 [Example 7JJ, (R)-(6-(4-(2-(2,2-difluoroethoxy)phenyl)piperidin-1-yl)-2-azaspiro[3.4]octan-2-yl)(oxetan-3-yl)methanone]
10 | 0 | < 4.60 | 23 | 6.23 | CC(C)Oc1ccccc1C1CCN([C@@H]2CCC3(C2)CN(C(=O)C2COC2)C3)CC1 [Example 7K, (R)-(6-(4-(2-isopropoxyphenyl)piperidin-1-yl)-2-azaspiro[3.4]octan-2-yl)(oxetan-3-yl)methanone]
11 | 0 | < 4.60 | 21 | 7.04 | O=C(C1COC1)N1CC2(CC[C@@H](N3CCC(c4ccccc4OCCC4COC4)CC3)C2)C1 [Example 7KK, (R)-oxetan-3-yl(6-(4-(2-(2-(oxetan-3-yl)ethoxy)phenyl)piperidin-1-yl)-2-azaspiro[3.4]octan-2-yl)methanone]
12 | 0 | < 4.60 | 0 |  | CC(C)(O)COc1ccccc1C1CCN([C@@H]2CCC3(C2)CN(C(=O)C2COC2)C3)CC1 [Example 7L, (R)-(6-(4-(2-(2-hydroxy-2-methylpropoxy)phenyl)piperidin-1-yl)-2-azaspiro[3.4]octan-2-yl)(oxetan-3-yl)methanone]
